How the values were obtained:
[1] = tested on: BRCA1; experiment: BRCA1 expression in MCF-7 breast cancer cells; type: cell-based, human; conditions: MCF-7 cells, dose-dependent
Text: (§1) FIGS. 4A-4C depict dose-dependent up-regulation of BRCA1 in MCF-7 breast cancer cells by EPA (A) and CLT (B). Upper bands, BRCA1; lower bands, actin.
(§2) MCF-7 breast cancer cells, known to have very low levels of BRCA1 protein, were exposed to CLT and EPA. […] To confirm that up-regulation of BRCA1 was at the level of translation, the 5′ UTRs of either BRCA1 mRNAa or mRNAb were placed in front of the firefly luciferase reporter gene using in both cases renilla luciferase as an internal control. These constructs were transfected into MCF-7 breast cancer cells. […] Without intending to be bound by theory, these experiments indicate that the inhibitors of translation initiation that induce phosphorylation of eIF2α restrict the availability of the ternary complex to translationally up-regulate the tumor suppressor gene BRCA1, a critical player in many types of sporadic breast and ovarian cancers.

[2] = tested on: 5′ UTR of BRCA1 mRNA; experiment: firefly luciferase reporter with 5′ UTR of BRCA1 mRNAa or mRNAb in MCF-7 cells; type: cell-based, human; conditions: renilla luciferase internal control
Text: as §1, §2

[3] = tested on: HCT-15; experiment: sulfarodamine B cell growth assay (SRB); type: cell-based; conditions: Homo sapiens; HCT-15, Colon
Text: (§3) The effect of EPA on the proliferation of a panel of cancer cell lines representative of most common human cancers was studied using the sulfarodamine B cell growth assay (SRB). EPA inhibited the proliferation of all cancer cell lines tested, including androgen dependent and androgen independent prostate cancer cell lines (LNCaP, PC-3 and DU-145) in a dose dependent manner (Table 1: effect of EPA on human cancer cello growth).

[4] = tested on: SK-OV3; experiment: sulfarodamine B cell growth assay (SRB); type: cell-based; conditions: Homo sapiens, SK-OV-3; SK-OV3, Ovary
Text: as §3

[5] = tested on: A549; experiment: sulfarodamine B cell growth assay (SRB); type: cell-based; conditions: Homo sapiens; A549, Lung
Text: as §3

[6] = tested on: Hep-G2; experiment: sulfarodamine B cell growth assay (SRB); type: cell-based; conditions: Homo sapiens, HepG2; Hep-G2, Liver
Text: as §3

[7] = tested on: PC-3; experiment: sulfarodamine B cell growth assay (SRB); type: cell-based; conditions: Homo sapiens; PC-3, Prostate
Text: as §3

[8] = tested on: ACHN; experiment: sulfarodamine B cell growth assay (SRB); type: cell-based; conditions: Homo sapiens, Kidney
Text: as §3

[9] = tested on: SK-Mel-28; experiment: sulfarodamine B cell growth assay (SRB); type: cell-based; conditions: Homo sapiens; SK-Mel-28, Skin
Text: as §3

[10] = tested on: MCF-7; experiment: sulfarodamine B cell growth assay (SRB); type: cell-based; conditions: Homo sapiens, MCF7; MCF-7, Breast
Text: as §3

[11] = tested on: MMRU; experiment: sulfarodamine B cell growth assay (SRB); type: cell-based; conditions: Homo sapiens, Skin
Text: as §3

[12] = tested on: MDAMB231; experiment: sulfarodamine B cell growth assay (SRB); type: cell-based; conditions: Homo sapiens, MDA-MB-231; MDAMB231, Breast
Text: as §3

[13] = tested on: DU-145; experiment: sulfarodamine B cell growth assay (SRB); type: cell-based; conditions: Homo sapiens; DU-145, Prostate
Text: as §3

[14] = tested on: HeLa; experiment: sulfarodamine B cell growth assay (SRB); type: cell-based; conditions: Homo sapiens, Cervix
Text: as §3

[15] = tested on: U-118 MG; experiment: sulfarodamine B cell growth assay (SRB); type: cell-based; conditions: Homo sapiens, Glioblastoma
Text: as §3

[16] = tested on: LNCaP; experiment: sulfarodamine B cell growth assay (SRB); type: cell-based; conditions: Homo sapiens, Prostate
Text: as §3

[17] = tested on: Caski-1; experiment: sulfarodamine B cell growth assay (SRB); type: cell-based; conditions: Homo sapiens; Caski-1, Cervix
Text: as §3

[18] = tested on: HT-29; experiment: sulfarodamine B cell growth assay (SRB); type: cell-based; conditions: Homo sapiens; HT-29, Colon
Text: as §3

[19] = tested on: PC-3 human prostate tumors; experiment: orthotopic xenograft model of human prostate cancer, survival; type: in vivo, mouse; conditions: PC-3 orthotopic, gavage 2.5 grams/kilogram/day
Text: FIGS. 14A-14F depict the effect of EPA on xenograft cancer models. (A) EPA increased the mean survival time in an orthotopic model of PC-3 human prostate tumors (left, corn oil; right, EPA). (B) EPA reduced tumor growth in an orthotopic syngenic model of KLN mouse squamous cell carcinoma (5 weeks) (left, corn oil; right, EPA). (C) EPA induced phosphorylation of eIF2α in the KLN tumors (left, corn oil; middle, EPA1;
Human PC-3 prostate cancer cells stably transfected with the GFP fluorescent marker were implanted into mouse prostate glands and tumors were allowed to establish. Mice with tumors detectable by whole body fluorescent scanning were treated with EPA or corn oil, orally administered by gavage (2.5 grams/kilogram/day).

[20] = tested on: HTB-174; experiment: sulfarodamine B cell growth assay (SRB); type: cell-based; conditions: Homo sapiens; HTB-174, Lung
Text: The effect of EPA on the proliferation of a panel of cancer cell lines representative of most common human cancers was studied using the sulfarodamine B cell growth assay (SRB).

[21] = tested on: p53^−/− mice
Text: p53 is the most commonly mutated gene in human cancers. The anti-cancer activity of EPA was investigated in p53^−/− mice, which develop a wide variety of spontaneous tumors with 100% penetrance and die from cancer within 50 weeks of age. Age and sex matched animals were randomly distributed to treatment (2.5 grams/kilogram EPA) or control (2.5 grams/kilogram corn oil) administered daily by gavage.

[22] = tested on: eIF2α phosphorylation; experiment: immunoblot with anti-S51-P-eIF2α-specific antibody in DU-145 cells; type: cell-based, human; conditions: two hours
Experimental: To investigate whether depletion of Ca^++ stores by EPA causes activation of eIF2α kinases and phosphorylation of eIF2α in prostate cancer cells, DU-145 cells were incubated with or without increasing concentrations of EPA for two hours.

[23] = tested on: DU-145 cells transfected with eIF2α51A; experiment: cell cycle distribution of GFP expressing cells by FACS; type: cell-based, human; conditions: 51A, GFP-expressing DU-145 cells
Experimental: (§4) FIG. 10 depicts cell cycle inhibition by EPA that is dependent on eIF2α phosphorylation. DU-145 human prostate cancer cell lines were transiently transfected with eIF2α-51A-GFP or eIF2α-WT-GFP plasmids, treated with EPA or vehicle, stained with propidium iodide and cell cycle distribution of GFP transfected cells was determined.
(§5) eIF2α51A is a […] non-phosphorylatable mutant of eIF2α in which serine 51 has been replaced by alanine (FIG. 9). To confirm that eIF2α phosphorylation is also critical for EPA-mediated inhibition of cell proliferation in prostate cancer cells, DU-145 cells were transiently transfected with a construct that co-expresses the fluorescent marker GFP with either eIF2αWT (i.e., eIF2α wild-type) or eIF2α51A. These cells were treated with either EPA or vehicle DMSO, and the cell cycle distribution of GFP expressing cells was determined by FACS analysis.

[24] = tested on: DU-145 cells transfected with eIF2αWT; experiment: as above; type: cell-based, human; conditions: WT, GFP-expressing DU-145 cells
Experimental: as §4, §5

In the case of Clc1ccccc1C(c1ccccc1)(c1ccccc1)n1ccnc1 [CLT, clotrimazole], the “up-regulation of BRCA1” value [1] is reported as “significant up-regulation of BRCA1” and the “translation of reporter fused to 5′ UTR of BRCA1 mRNAb” value [2] is reported as “significantly up-regulated translation”.
CC/C=C\C/C=C\C/C=C\C/C=C\C/C=C\CCCC(=O)O [EPA, eicosapentaenoic acid] showed an IC50 [3] of 47 µM, an IC50 [4] of 96 µM and an IC50 [5] of 54 µM. The IC50 [6] was 24 µM, the IC50 [7] was 20 µM and the IC50 [8] was 62 µM. The IC50 [9] was 46 µM, the IC50 [10] was 43 µM and the IC50 [11] was 36 µM. It also gave an IC50 [12] of 37 µM, an IC50 [13] of 36 µM and an IC50 [14] of 10 µM. It also gave an IC50 [15] of 36 µM, an IC50 [16] of 18 µM and an IC50 [17] of 76 µM. The IC50 [18] was 72 µM, the “longer mean survival time than corn oil” value [19] was 50% and the mean survival time [19] was 38 ± 5 days. The IC50 [20] was 79 µM, the sign of toxicity ([21]; mouse, in vivo) was “Neither control nor EPA treated animals showed any sign of toxicity” and the “mean survival time (Kaplan-Meier)” value ([21]; oral 2.5 grams/kilogram/day from four weeks of age) was 385 ± 12 days. The “increase in eIF2α phosphorylation” value [22] was “approximately 10 fold”, the “% G1” value [23] was 48% and the “% G2/M” value [23] was 21%. For the same molecule, the “% S” value [23] was 31%, the “% G1” value [24] was 67% and the “% G2/M” value [24] was 14%. For the same molecule, the “% S” value [24] was 19%.
